Biological target: IGF-1R (Homo sapiens, UniProt P08069)
Assay: IGF-1R biochemical assay (ADP-Glo)
Conditions: read-out: IGF1R IC50
Experimental: The inhibitory activity against IGF-1R was measured using ADP-Glo assay. The percent (%) inhibition at each concentration of compound is calculated based on and relative to the luminescence signal in the Max and Min control wells contained within each assay plate. The Max control wells contain enzyme and substrate as 0% inhibition, and the Min control wells only contain substrate without enzyme as 100% inhibition. The concentrations and % inhibition values for tested compounds are plotted and the concentration of compound required for 50% inhibition (IC50) is determined with a four-parameter logistic dose response equation.
Table 3 provides IC50 data of representative compounds against IGF-1R using ADP-Glo assay. The IC50 data are designated within the following ranges: A: ≤0.10 μM, B: >0.10 μM to ≤1 μM, C: >1 μM to ≤20 μM

Sequence of IGF-1R (P08069 31-1367): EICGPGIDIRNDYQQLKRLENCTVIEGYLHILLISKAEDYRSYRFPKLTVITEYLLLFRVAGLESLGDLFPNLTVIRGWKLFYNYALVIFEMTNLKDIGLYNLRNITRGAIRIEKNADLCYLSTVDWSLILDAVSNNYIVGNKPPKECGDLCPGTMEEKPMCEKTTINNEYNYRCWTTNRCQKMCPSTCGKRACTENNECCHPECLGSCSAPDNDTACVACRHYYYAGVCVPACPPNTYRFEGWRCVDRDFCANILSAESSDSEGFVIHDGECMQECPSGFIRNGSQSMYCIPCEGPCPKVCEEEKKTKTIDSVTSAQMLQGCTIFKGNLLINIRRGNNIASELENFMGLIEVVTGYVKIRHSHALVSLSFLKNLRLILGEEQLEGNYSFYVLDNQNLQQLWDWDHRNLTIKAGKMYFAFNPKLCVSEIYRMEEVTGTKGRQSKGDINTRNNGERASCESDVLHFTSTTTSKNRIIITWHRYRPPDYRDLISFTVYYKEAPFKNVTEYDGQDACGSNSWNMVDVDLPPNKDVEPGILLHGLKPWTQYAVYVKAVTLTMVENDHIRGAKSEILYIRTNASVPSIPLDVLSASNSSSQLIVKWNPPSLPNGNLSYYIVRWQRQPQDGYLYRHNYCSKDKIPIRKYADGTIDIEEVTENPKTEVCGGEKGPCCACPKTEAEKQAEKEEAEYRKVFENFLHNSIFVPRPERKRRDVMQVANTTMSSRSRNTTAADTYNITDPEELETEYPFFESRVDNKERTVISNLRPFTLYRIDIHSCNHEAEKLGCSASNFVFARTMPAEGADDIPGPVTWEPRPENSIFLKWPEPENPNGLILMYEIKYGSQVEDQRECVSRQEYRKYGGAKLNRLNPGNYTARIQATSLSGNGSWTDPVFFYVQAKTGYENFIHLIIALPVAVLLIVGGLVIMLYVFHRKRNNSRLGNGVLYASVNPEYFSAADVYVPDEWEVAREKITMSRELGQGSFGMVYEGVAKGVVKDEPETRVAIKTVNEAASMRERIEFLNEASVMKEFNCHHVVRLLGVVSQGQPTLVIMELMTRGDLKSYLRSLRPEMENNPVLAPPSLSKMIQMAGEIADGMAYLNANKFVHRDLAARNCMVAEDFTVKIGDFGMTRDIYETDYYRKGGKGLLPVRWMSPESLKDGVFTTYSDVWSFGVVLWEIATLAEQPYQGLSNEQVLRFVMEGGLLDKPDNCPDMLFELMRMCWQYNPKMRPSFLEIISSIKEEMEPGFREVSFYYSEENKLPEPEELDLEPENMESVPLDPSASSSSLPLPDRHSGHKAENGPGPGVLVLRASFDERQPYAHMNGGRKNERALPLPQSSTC

| IC50 [nM] | SMILES |
| --- | --- |
| ≤ 100 | C[C@]1(O)C[C@@H](n2nc(-c3ccc4ccc(-c5ccccc5F)nc4c3)c(C(N)=O)c2N)C1 [Example C037, 5-amino-3-(2-(2-fluorophenyl)quinolin-7-yl)-1-((1s,3s)-3-hydroxy-3-methylcyclobutyl)-1H-pyrazole-4-carboxamide] |
| 100 to 1000 | C[C@]1(O)C[C@@H](n2nc(-c3ccc4ccc(-c5ccccn5)nc4c3F)c(C(N)=O)c2N)C1 [Example C057, 5-amino-3-(8-fluoro-2-(pyridin-2-yl)quinolin-7-yl)-1-((1s,3s)-3-hydroxy-3-methylcyclobutyl)-1H-pyrazole-4-carboxamide] |
| ≤ 100 | CCOc1cc(-c2ccccc2)nc2cc(-c3nn(C4CC(=O)C4)c(N)c3C(N)=O)ccc12 [Example C043, 5-amino-3-(4-ethoxy-2-phenylquinolin-7-yl)-1-(3-oxocyclobutyl)-1H-pyrazole-4-carboxamide] |
| ≤ 100 | C[C@]1(O)C[C@@H](n2nc(-c3ccc4c(OC(F)F)cc(-c5ccccc5)nc4c3F)c(C(N)=O)c2N)C1 [Example C044, 5-amino-3-(4-(difluoromethoxy)-8-fluoro-2-phenylquinolin-7-yl)-1-((1s,3s)-3-hydroxy-3-methylcyclobutyl)-1H-pyrazole-4-carboxamide] |
| 1000 to 20000 | C[C@]1(O)C[C@@H](n2nc(-c3ccc4cnc(-c5ccccc5)nc4c3)c(C(N)=O)c2N)C1 [Example C054, 5-amino-1-((1s,3s)-3-hydroxy-3-methylcyclobutyl)-3-(2-phenylquinazolin-7-yl)-1H-pyrazole-4-carboxamide] |
| ≤ 100 | COc1cc(-c2cccc(F)c2)nc2cc(-c3nn([C@H]4C[C@](C)(O)C4)c(N)c3C(N)=O)ccc12 [Example C049, 5-amino-3-(2-(3-fluorophenyl)-4-methoxyquinolin-7-yl)-1-((1r,3r)-3-hydroxy-3-methylcyclobutyl)-1H-pyrazole-4-carboxamide] |
| 100 to 1000 | C[C@]1(O)C[C@@H](n2nc(-c3ccc4cc(F)c(-c5ccccc5)nc4c3F)c(C(N)=O)c2N)C1 [Example C059, 5-amino-3-(3,8-difluoro-2-phenylquinolin-7-yl)-1-((1s,3s)-3-hydroxy-3-methylcyclobutyl)-1H-pyrazole-4-carboxamide] |
| ≤ 100 | C[C@]1(O)C[C@H](n2nc(-c3ccc4ccc(-c5ccccc5F)nc4c3)c(C(N)=O)c2N)C1 [Example C040, 5-amino-3-(2-(2-fluorophenyl)quinolin-7-yl)-1-((1r,3r)-3-hydroxy-3-methylcyclobutyl)-1H-pyrazole-4-carboxamide] |

The next lines start with the compound.

| SMILES | IC50 [nM] |
| --- | --- |
| C[C@]1(O)C[C@@H](n2nc(-c3ccc4ccc(-c5ccccc5)nc4c3F)c(C(N)=O)c2N)C1 [Example C028, 5-amino-3-(8-fluoro-2-phenylquinolin-7-yl)-1-((1s,3s)-3-hydroxy-3-methylcyclobutyl)-1H-pyrazole-4-carboxamide] | ≤ 100 |
| NC(=O)c1c(-c2ccc3ccc(-c4ccccc4)nc3c2)nn(C2CCN(C(N)=O)CC2)c1N [Example C003, 4-(5-amino-4-carbamoyl-3-(2-phenylquinolin-7-yl)-1H-pyrazol-1-yl)piperidine-1-carboxamide] | 1000 to 20000 |
| NC(=O)c1c(-c2ccc3ccc(-c4ccccc4)nc3c2)nn([C@H]2C[C@@H](C(=O)O)C2)c1N [Example C017, (1s,3s)-3-(5-amino-4-carbamoyl-3-(2-phenylquinolin-7-yl)-1H-pyrazol-1-yl)cyclobutane-1-carboxylic acid] | 1000 to 20000 |
| NC(=O)c1c(-c2ccc3ccc(-c4ccccc4)nc3c2)nn([C@H]2C[C@H](CN3CCNCC3)C2)c1N [Example C016, 5-amino-3-(2-phenylquinolin-7-yl)-1-((1r,3r)-3-(piperazin-1-ylmethyl)cyclobutyl)-1H-pyrazole-4-carboxamide] | ≤ 100 |
| NC(=O)c1c(-c2ccc3ccc(-c4ccccc4)nc3c2)nn([C@H]2C[C@@H](O)C2)c1N [Example C009, 5-amino-1-((1s,3s)-3-hydroxycyclobutyl)-3-(2-phenylquinolin-7-yl)-1H-pyrazole-4-carboxamide] | 1000 to 20000 |
| NC(=O)c1c(-c2ccc3ccc(-c4ccccc4)nc3c2)nn(C2CC(N3CCNCC3)C2)c1N (stereo not shown) [Example C025, 5-amino-3-(2-phenylquinolin-7-yl)-1-(3-(piperazin-1-yl)cyclobutyl)-1H-pyrazole-4-carboxamide] | ≤ 100 |
| COC(=O)N1CCC(n2nc(-c3ccc4ccc(-c5ccccc5)nc4c3)c(C(N)=O)c2N)CC1 [Example C004, methyl 4-(5-amino-4-carbamoyl-3-(2-phenylquinolin-7-yl)-1H-pyrazol-1-yl)piperidine-1-carboxylate] | 1000 to 20000 |
| NC(=O)c1c(-c2ccc3ccc(-c4ccccc4)nc3c2)nn2c1NCC(C(N)=O)C2 (stereo not shown) [Example C031] | 1000 to 20000 |
| NC(=O)c1c(-c2ccc3ccc(-c4ccccc4)nc3c2)nn(C2CC(=O)C2)c1N [Example C001, 5-amino-1-(3-oxocyclobutyl)-3-(2-phenylquinolin-7-yl)-1H-pyrazole-4-carboxamide] | 1000 to 20000 |
| NC(=O)c1c(-c2ccc3ccc(-c4ccccc4)nc3c2)nn(C2COC2)c1N [Example C029, 5-amino-1-(oxetan-3-yl)-3-(2-phenylquinolin-7-yl)-1H-pyrazole-4-carboxamide] | 1000 to 20000 |
| CC(=O)N1CCC(n2nc(-c3ccc4ccc(-c5ccccc5)nc4c3)c(C(N)=O)c2N)CC1 [Example C010, 1-(1-acetylpiperidin-4-yl)-5-amino-3-(2-phenylquinolin-7-yl)-1H-pyrazole-4-carboxamide] | 1000 to 20000 |
| C[C@]1(C(=O)O)C[C@H](n2nc(-c3ccc4ccc(-c5ccccc5)nc4c3)c(C(N)=O)c2N)C1 [Example C022, (1r,3r)-3-(5-amino-4-carbamoyl-3-(2-phenylquinolin-7-yl)-1H-pyrazol-1-yl)-1-methylcyclobutane-1-carboxylic acid] | 1000 to 20000 |
| NC(=O)c1c(-c2ccc3ccc(-c4ccccc4)nc3c2)nn([C@H]2C[C@H](CN3CCC3)C2)c1N [Example C014, 5-amino-1-((1r,3r)-3-(azetidin-1-ylmethyl)cyclobutyl)-3-(2-phenylquinolin-7-yl)-1H-pyrazole-4-carboxamide] | ≤ 100 |
| CN1CCC(n2nc(-c3ccc4ccc(-c5ccccc5)nc4c3)c(C(N)=O)c2N)CC1 [Example C007, 5-amino-1-(1-methylpiperidin-4-yl)-3-(2-phenylquinolin-7-yl)-1H-pyrazole-4-carboxamide] | 1000 to 20000 |
| NC(=O)c1c(-c2ccc3ccc(-c4ccccc4)nc3c2)nn(C2CC(F)(F)C2)c1N [Example C030, 5-amino-1-(3,3-difluorocyclobutyl)-3-(2-phenylquinolin-7-yl)-1H-pyrazole-4-carboxamide] | 100 to 1000 |
| CN1CCN(C[C@H]2C[C@H](n3nc(-c4ccc5ccc(-c6ccccc6)nc5c4)c(C(N)=O)c3N)C2)CC1 [Example C021, 5-amino-1-((1r,3r)-3-((4-methylpiperazin-1-yl)methyl)cyclobutyl)-3-(2-phenylquinolin-7-yl)-1H-pyrazole-4-carboxamide] | ≤ 100 |
| CC(C)n1nc(-c2ccc3ccc(-c4ccccc4)nc3c2)c(C(N)=O)c1N [Example C024, 5-amino-1-isopropyl-3-(2-phenylquinolin-7-yl)-1H-pyrazole-4-carboxamide] | 100 to 1000 |
